# Values quoted from earlier work, collected in patent publication US20020012702A1, “Controlled release anti-inflammatory oral formulation and a process for the preparation thereof” (Ajanta Pharma, Ltd., priority 2000, published 2002).
compound,measurement,setting,value
"CS(=O)(=O)Nc1ccc([N+](=O)[O-])cc1Oc1ccccc1 [Nimesulide, 4-Nitro-2-phenoxymethane sulfonanilide]",nimesulide plasma concentrations in the presence of food versus fasting conditions,"administered in the presence of food, higher than under fasting conditions",2 to 4 fold
same,half life,in vivo,3 to 4 h
